Measurements as given in ChEMBL document CHEMBL1142509, “Building skeletally diverse architectures on the Indoline Scaffold: the discovery of a chemical probe of focal adhesion kinase signaling networks” (Bioorg Med Chem, 2008).
Calls of active or inactive are those of the source. The rule behind the calls is not given here.

What was measured:
[1] = molecular target: Focal adhesion kinase 1 (Homo sapiens) (UniProt Q05397); experiment: Inhibition of human FAK at 30 uM
[2] = Antiproliferative activity against human MDA-MB-231M cells after 96 hrs by MTT assay; format: functional, cell-based
[3] = molecular target: Focal adhesion kinase 1 (Homo sapiens) (UniProt Q05397); experiment: Inhibition of FAK in human MDA-MB-231M cells assessed as phosphorylated tyrosine 397 levels at 25 uM after 1 hr by Western blot; format: cell-based
[4] = species: Homo sapiens; experiment: Inhibition of human MDA-MB-231M cell motility assessed as remaining wound area at 25 uM after 24 hrs by wound healing assay; format: functional
[5] = tested on: MDA-MB-231; experiment: Antiinvasive activity against human MDA-MB-231 cells at 25 uM; format: functional, cell-based

Focal adhesion kinase 1 (Homo sapiens), sequence (Q05397 2-1052 limits assumed): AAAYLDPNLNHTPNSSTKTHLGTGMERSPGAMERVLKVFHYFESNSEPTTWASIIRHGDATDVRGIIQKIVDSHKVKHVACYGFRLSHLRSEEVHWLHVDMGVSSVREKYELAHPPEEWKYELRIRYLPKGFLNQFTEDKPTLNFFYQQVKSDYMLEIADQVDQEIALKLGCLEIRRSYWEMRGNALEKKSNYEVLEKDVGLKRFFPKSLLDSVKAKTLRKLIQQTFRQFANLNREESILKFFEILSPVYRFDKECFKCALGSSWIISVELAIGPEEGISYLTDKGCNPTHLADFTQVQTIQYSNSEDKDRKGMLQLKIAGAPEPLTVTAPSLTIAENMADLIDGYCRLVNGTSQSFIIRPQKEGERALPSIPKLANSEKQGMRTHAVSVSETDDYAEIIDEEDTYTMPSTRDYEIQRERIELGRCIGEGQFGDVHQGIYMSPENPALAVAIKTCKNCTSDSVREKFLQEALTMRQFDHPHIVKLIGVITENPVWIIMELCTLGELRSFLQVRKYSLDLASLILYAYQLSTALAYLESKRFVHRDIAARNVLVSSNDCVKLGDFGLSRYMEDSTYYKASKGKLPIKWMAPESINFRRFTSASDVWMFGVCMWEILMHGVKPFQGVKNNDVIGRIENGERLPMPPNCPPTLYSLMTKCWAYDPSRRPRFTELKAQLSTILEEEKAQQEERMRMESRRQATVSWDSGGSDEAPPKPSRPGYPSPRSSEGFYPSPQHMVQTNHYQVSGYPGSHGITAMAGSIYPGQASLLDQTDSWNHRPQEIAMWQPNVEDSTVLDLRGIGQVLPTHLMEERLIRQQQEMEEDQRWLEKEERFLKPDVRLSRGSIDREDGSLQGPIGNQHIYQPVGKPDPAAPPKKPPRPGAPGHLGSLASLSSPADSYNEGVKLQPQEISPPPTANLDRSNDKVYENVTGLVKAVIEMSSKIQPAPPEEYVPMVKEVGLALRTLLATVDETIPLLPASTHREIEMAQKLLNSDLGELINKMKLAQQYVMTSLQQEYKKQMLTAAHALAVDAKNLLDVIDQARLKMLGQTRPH

## C=CCOC(=O)N1c2ccc(OCCCOC3CCCCO3)cc2C[C@H]1[C@@H](CC=C)OC(C)=O (mixture of isomers)
[1]
  inhibition: 30%
[2]
  IC50: 38.7 µM
[3]
  Activity: Active
[4]
  Activity: Active
[5]
  Activity: Active
